#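 All cell lines were grown in 96-well plates and treated with compound for 48 hours. TGI: total growth inhibition.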
# Columns and labels:
# Test in all cases: growth of human tumour cells (NCI), 48 h
# SK-MEL-2 melanoma = system: SK-MEL-2 melanoma
# MALME-3M melanoma = system: MALME-3M melanoma
# HOP-62 NSCLC = system: HOP-62 NSCLC
# HT29 colon = system: HT29 colon
# RPMI-8226 leukemia = system: RPMI-8226 leukemia
# HCC-2998 colon = system: HCC-2998 colon
# HL-60(TB) leukemia = system: HL-60(TB) leukemia
# M14 melanoma = system: M14 melanoma
# T-47D breast = system: T-47D breast
# ACHN renal = system: ACHN renal
# NCI/ADR-RES ovarian = system: NCI/ADR-RES ovarian
# SF-295 CNS = system: SF-295 CNS
# SNB-19 CNS = system: SNB-19 CNS
# OVCAR-3 ovarian = system: OVCAR-3 ovarian
# HCT-15 colon = system: HCT-15 colon
# SF-268 CNS = system: SF-268 CNS
# MDA-N = system: MDA-N
# SK-OV-3 ovarian = system: SK-OV-3 ovarian
Structure (SMILES),TGI (SK-MEL-2 melanoma),TGI (MALME-3M melanoma),TGI (HOP-62 NSCLC),TGI (HT29 colon),TGI (RPMI-8226 leukemia),TGI (HCC-2998 colon),TGI (HL-60(TB) leukemia),TGI (M14 melanoma),TGI (T-47D breast),TGI (ACHN renal),TGI (NCI/ADR-RES ovarian),TGI (SF-295 CNS),TGI (SNB-19 CNS),TGI (OVCAR-3 ovarian),TGI (HCT-15 colon),TGI (SF-268 CNS),TGI (MDA-N),TGI (SK-OV-3 ovarian)
CC(=O)O[C@H]1C(=O)[C@@]2(C)[C@H]([C@H](OC(=O)c3ccccc3)[C@]3(O)C[C@H](OC(=O)[C@H](O)[C@@H](NC(=O)c4ccccc4)C4CCCCC4)C(C)=C1C3(C)C)[C@]1(OC(C)=O)CO[C@@H]1C[C@@H]2O,> 100 µM,95 µM,1.45 µM,17.5 µM,19.2 µM,16.4 µM,< 0.01 µM,24 µM,93.7 µM,> 72.8 µM,11.4 µM,0.0606 µM,> 100 µM,< 0.01 µM,> 51.1 µM,> 100 µM,–,–
COC(=O)C1=C(C(=O)OC)SC(=C2c3ccsc3-c3sccc32)S1,–,> 100 µM,55.1 µM,> 100 µM,> 100 µM,> 100 µM,58.7 µM,> 100 µM,–,> 100 µM,> 100 µM,53.5 µM,> 100 µM,> 100 µM,> 100 µM,57.3 µM,> 100 µM,49.3 µM
O=C(Nc1ccc(Cl)c(Cl)c1)C(=O)C(C1OC(=O)c2ccccc21)[N+](=O)[O-] (centres undefined),> 100 µM,> 100 µM,> 100 µM,> 100 µM,–,> 100 µM,–,> 100 µM,> 100 µM,> 100 µM,> 100 µM,> 100 µM,> 100 µM,> 100 µM,> 100 µM,> 100 µM,> 100 µM,> 100 µM
O=C1C=C(c2c(-c3ccccc3)[nH]c3ccccc23)C(=O)N1c1ccccc1,28.4 µM,23.9 µM,1.06 µM,29.7 µM,> 100 µM,20.8 µM,24.1 µM,30.4 µM,–,71.4 µM,66.2 µM,25.3 µM,66.1 µM,15.8 µM,23.8 µM,21.5 µM,15.7 µM,> 100 µM
CNc1nnnn1C1OC(CO)C(O)C1O (centres undefined),> 100 µM,> 100 µM,> 100 µM,> 100 µM,> 100 µM,> 100 µM,–,> 100 µM,–,> 100 µM,–,> 100 µM,–,> 100 µM,> 100 µM,> 100 µM,–,> 100 µM
O/N=C(\C=N\O)c1ccc2c(c1)Sc1ccccc1O2,–,72.5 µM,36.8 µM,49.7 µM,38.9 µM,41.9 µM,59.8 µM,39.6 µM,74.7 µM,42.8 µM,–,46.3 µM,67.8 µM,48.8 µM,75.2 µM,38.4 µM,–,40.2 µM
CC1=Nc2nc3ccccc3n2C(C)(C)C1,> 100 µM,> 100 µM,> 100 µM,> 100 µM,> 100 µM,–,–,> 100 µM,> 100 µM,> 100 µM,> 100 µM,> 100 µM,> 100 µM,> 100 µM,> 100 µM,> 100 µM,> 100 µM,> 100 µM
